Reference: patent publication US20180153870A1, “BIPERIDEN FOR TREATING CANCER” (Universitätsklinikum Hamburg-Eppendorf, priority 2015, published 2018)

Assays:
Format in all cases: cell-based, human
[1] = system: HPDE; experiment: MTT proliferation assay, HPDE reference cell line; settings: for reaction of proliferation: mepazine, other doses of biperiden or a combination of mepazine and biperiden
Protocol: (§1) The cell lines used for the proliferation assays were cultured in different media. The cell lines Pan-1, Panc-2 and BxPC3, which have been derived from the human ductal pancreatic adenocarcinoma (PDAC), were cultured in Dulbecco's modified Eagle medium (DMEM) (Sigma), that was supplemented with 1% penicillin/streptomycin (Life technologies/GIBCO 15140-122) and 10% fetal bovine serum (Life technologies/GIBCO 100500-064). The cell line L3.6pl was cultured in RPMI 1640 medium (Life technologies/GIBCO 72400-21) that was supplemented with 1% penicillin/streptomycin and 10% fetal bovine serum. A sub-clone of the cell line L3.6pl, that was designated L3.6pl res, was resistant to gemcitabine and was also cultured in RPMI 1640 medium (Life technologies/GIBCO 72400-21) that was supplemented with 1% penicillin/streptomycin, 10% fetal bovine serum and 2 μM gemcitabine (GEMZAR, Lily). The human immortalized, non-malignant cell line of the ductal pancreatic epithelium (HPDE) was cultured in keratinocyte-SFM (Life technologies/GIBCO) that was supplemented with 10% fetal bovine serum, 1% penicillin/streptomycin and 1% epidermal growth factor (EGF).
(§2) The proliferation rates of the cell lines were determined after stimulation with (i) biperiden, (ii) mepazine, and (iii) stimulation with both active ingredients. For this purpose, cells were seeded in plates with 96 wells at 5000 cells per well and incubated overnight at 37° C. and 5% CO2. Next morning, the blanket values were measured at 490 nm in an ELISA reader (FLUOstar Omega, BMG LABTECH) after the addition of 100 μL medium and 20 μL MTT substrate (CellTiter 96 AQueous One Solution Cell Proliferation Assay, Promega). Biperiden was added in increasing concentrations (3.71 μg/ml, 11.1 μg/ml und 29.6 μg/ml) in the form of solutions of biperiden hydrochloride (B5311 SIGMA-Aldrich, USA) and DMSO. […] The ex-tinction was measured every 24 hours during a period of 72 hours.
(§3) The normal distribution of the results was analyzed by Kolgomorov-Smirnov test and Shapiro-Wilk test. Non-parametric variables were analyzed using the Mann-Whitney-U test. […]

[2] = system: L3.6pl res; experiment: MTT proliferation assay, L3.6pl res (gemcitabine-resistant)
Protocol: as §1, §2, §3

[3] = system: L3.6pl wt; experiment: MTT proliferation assay, L3.6pl wt
Protocol: (§4) The cell lines used for the proliferation assays were cultured in different media. The cell lines Pan-1, Panc-2 and BxPC3, which have been derived from the human ductal pancreatic adenocarcinoma (PDAC), were cultured in Dulbecco's modified Eagle medium (DMEM) (Sigma), that was supplemented with 1% penicillin/streptomycin (Life technologies/GIBCO 15140-122) and 10% fetal bovine serum (Life technologies/GIBCO 100500-064). The cell line L3.6pl was cultured in RPMI 1640 medium (Life technologies/GIBCO 72400-21) that was supplemented with 1% penicillin/streptomycin and 10% fetal bovine serum. […]
(§5) The proliferation rates of the cell lines were determined after stimulation with (i) biperiden, (ii) mepazine, and (iii) stimulation with both active ingredients. […] Next morning, the blanket values were measured at 490 nm in an ELISA reader (FLUOstar Omega, BMG LABTECH) after the addition of 100 μL medium and 20 μL MTT substrate (CellTiter 96 AQueous One Solution Cell Proliferation Assay, Promega). […] The ex-tinction was measured every 24 hours during a period of 72 hours.
as §3

[4] = system: Panc-2; experiment: MTT proliferation assay, Panc-2
Protocol: as §1, §2, §3

[5] = system: pancreatic cancer cell lines; experiment: MTT proliferation assay, all pancreatic cancer cell lines; settings: in the presence of biperiden, mepazine or a combination
Protocol: as §4, §5, §3

[6] = system: esophageal carcinoma cell lines OE19, OE33 und KYSE 140; experiment: MTT proliferation assay, esophageal carcinoma cell lines; settings: OE19, OE33, KYSE 140; concentrations as in Example 1
Protocol: (§6) The proliferation rates of the cell lines were determined after stimulation with (i) biperiden, (ii) mepazine, and (iii) stimulation with both active ingredients. For this purpose, cells were seeded in plates with 96 wells at 5000 cells per well and incubated overnight at 37° C. and 5% CO2. Next morning, the blanket values were measured at 490 nm in an ELISA reader (FLUOstar Omega, BMG LABTECH) after the addition of 100 μL medium and 20 μL MTT substrate (CellTiter 96 AQueous One Solution Cell Proliferation Assay, Promega). Biperiden was added in increasing concentrations (3.71 μg/ml, 11.1 μg/ml und 29.6 μg/ml) in the form of solutions of biperiden hydrochloride (B5311 SIGMA-Aldrich, USA) and DMSO. Mepazine was added in increasing concentrations (15 μM and 25 μM) in the form of solutions of mepazine hydrochloride (MALT1 Inhibitor II, Calbiochem Merck, Millipore Billerica, USA). Combinations of both mepazine and biperiden were added in the following concentrations: 15 μM mepazine+3.71 μg/ml biperiden; 25 μM mepazine+3.71 μg/ml biperiden. The ex-tinction was measured every 24 hours during a period of 72 hours. […]

[7] = system: lung carcinoma cell lines A549 und H1299; experiment: MTT proliferation assay, lung carcinoma cell lines; settings: concentrations as in Example 1
Protocol: as §6

With `OC(CCN1CCCCC1)(c1ccccc1)C1CC2C=CC1C2` (centres unmarked) [biperiden] the proliferation ([1]; 11.1 μg/ml biperiden) was “reduced slightly”, the reaction of proliferation [1] was “no statistically significant reaction” and the “reduction of proliferation rate” value ([2]; 29.6 μg/ml biperiden, p=0.022) was 71.6%. For the same molecule, the “reduction in the proliferation rate” value ([3]; 29.7 μg/ml biperiden, p=0.02) was 96.4%, the “reduction of proliferation rate” value ([4]; 29.6 μg/ml biperiden, trend, p=0.077) was 98.2% and the “reduction in the proliferation rate” value [5] was “massive reduction”. For the same molecule, the “proliferation of esophageal carcinoma cell lines” value [6] was “inhibited proliferation of esophageal carcinoma cell lines significantly” and the “proliferation of lung carcinoma cell lines” value [7] was “inhibited proliferation”.

With `CN1CCCC(CN2c3ccccc3Sc3ccccc32)C1` (centres unmarked) [mepazine] the reaction of proliferation [1] was “no statistically significant reaction”, the “reduction of proliferation rate” value ([2]; 15 μM mepazine, p=0.031) was 69.4% and the proliferation ([2]; 25 μM mepazine, p=0.002) was “completely stopped”. The “reduction in the proliferation rate” value ([3]; 25 μM mepazine, p=0.004) was 97.9%, the “reduction of proliferation rate” value ([4]; 15 μM mepazine, p=0.008) was 56.1% and the “reduction of proliferation rate” value ([4]; 25 μM mepazine, p=0.001) was 86.9%. The “reduction in the proliferation rate” value [5] was “massive reduction”, the “proliferation of esophageal carcinoma cell lines” value [6] was “inhibited proliferation of esophageal carcinoma cell lines significantly” and the “proliferation of lung carcinoma cell lines” value [7] was “inhibited proliferation”.
